Patent US5424428A, “( -)-[[4-(1,4,5,6-tetrahydro-4-methyl-6-oxo-3-pyridazinyl)phenyl]-hydrazono]p r” (Orion-yhtyma Oy, priority 1991, dated 1995)
Values after ≈ are worked out from the molar mass of the structure shown.

Assays:
[1] = test system: right ventricular papillary muscle of guinea-pig; assay: Cardiotonic action in isolated, electrically paced, right ventricular papillary muscle; type: cell-based; details: for EC50: cardiotonic effect, guinea-pig papillary muscle, normal Tyrode's bath solution
Protocol: Cardiotonic action of the (-) and (+) enantiomers of [[4-(1,4,5,6-tetrahydro-4-methyl-6-oxo-3-pyridazinyl)phenyl]hydrazono]propanedinitrile (I) was studied in isolated, electrically paced, right ventricular papillary muscle of guinea-pig. Experiments were carried out in normal Tyrode's bath solution as described by Otani et al., Japan.

[2] = Bioavailability: concentration of total drug in dog plasma after single dose oral administration; type: in vivo
Protocol: FIG. 1 is a graph depicting the concentration of total [[4-(1,4,5,6-tetrahydro-4-methyl-6-oxo-3-pyridazinyl)phenyl]hydrazono]propanedinitrile in dog plasma over time after single dose oral administration of the racemate and the (-) enantiomer.
Concentration of total [[4-(1,4,5,6-tetrahydro-4-methyl-6-oxo-3-pyridazinyl)phenyl]hydrazono]propanedinitrile in dog plasma after single dose oral administration of the racemate (1 mg/kg) and (-)-enantiomer (0.5 mg/kg) is shown in FIG. 1. Curve A is for the (-)-enantiomer and curve B is for the racemic [[4-(1,4,5,6-tetrahydro-4-methyl-6-oxo-3-pyridazinyl)phenyl]hydrazono]propanedinitrile.

[3] = Water solubility in 67 mM phosphate buffer (pH 2); type: physicochemical
Protocol: The water solubility of (-) enantiomer and racemic mixture of
[[4-(1,4,5,6-tetrahydro-4-methyl-6-oxo-3-pyridazinyl)phenyl]-
hydrazono]propanedinitrite (l) in 67 mM phosphate buffer (pH 2).

[4] = LD50 given intravenously to rats; details: rat, in vivo, intravenous

| Structure (SMILES) | EC50 [1] | potency of (-) enantiomer relative to (+) enantiomer ([1]; cardiotonic, ratio (-) vs (+) enantiomer) | cardiotonic potency ([1]; result in words) | dose needed to produce the same plasma concentration level of the total drug substance, compared to racemate ([2]; dog, single dose oral, racemate 1 mg/kg, (-)-enantiomer 0.5 mg/kg, FIG. 1) | bioavailability compared to racemate ([2]; result in words) | solubility ([3]; aqueous buffer, water solubility, 67 mM phosphate buffer (pH 2)) | water solubility of the (-) enantiomer compared to the racemate ([3]; ratio (-) enantiomer / racemate) | LD50 [4] |
| --- | --- | --- | --- | --- | --- | --- | --- | --- |
| CC1CC(=O)NN=C1c1ccc(NN=C(C#N)C#N)cc1 (single isomer, unassigned; (+)) [(+), (+)-[[4-(1,4,5,6-Tetrahydro-4-Methyl-6-Oxo-3-Pyridazinyl)phenyl]Hydrazono]Propanedinitrile] | 2800 nM |  |  |  |  |  |  |  |
| CC1CC(=O)NN=C1c1ccc(NN=C(C#N)C#N)cc1 (single isomer, unassigned; (-)) [(-) enantiomer, (-)-[[4-(1,4,5,6-Tetrahydro-4-Methyl-6-Oxo-3-Pyridazinyl)phenyl]Hydrazono]Propanedinitrile] | 60 nM | 47 times | cardiotonic potency is predominantly due to the optically active (-) enantiomer | less than half dose is needed to produce the same plasma concentration level of the total drug substance | superior compared to racemate | 29 µg/mL (≈ 103 µM) | over 30 fold | 57 mg/kg |
